Reference: ChEMBL document CHEMBL6153083, “Synthesis, Structural Modification, and Antismall Cell Lung Cancer Activity of 3-Arylisoquinolines with Dual Inhibitory Activity on Topoisomerase I and II” (J Med Chem, 2025)
Active and inactive are the calls of the source. No cut-off for these calls is given here.

Tests used:
[1] = Toxicity in BALB/c nude mouse xenografted with human NCI-H446 cells assessed as deleterious effect in heart at 10 to 20 mg/kg, ip for 21 days by H and E staining based analysis; format: organism-based; conditions: in vivo, 504 h, dose 10-20 mg/kg, time 21 day
[2] = Inhibition of PI3K/AKT/mTOR signalling pathway in human NCI-H1048 cells assessed as decrease in PI3K phosphorylation at 1.75 to 14 uM incubated for 48 hrs by Western blot analysis; format: cell-based; conditions: dose 1.75-14 µM
[3] = test system: NCI-H446; test: Induction of apoptosis in human NCI-H446 cells assessed as formation of cellular fragments at 1 to 8 uM incubated for 48 hrs by Annexin V-FITC/PI staining based flow cytometry; format: functional, cell-based; conditions: dose 1-8 µM
[4] = Inhibition of PI3K/AKT/mTOR signalling pathway in human NCI-H1048 cells assessed as decrease in mTOR level at 1.75 to 14 uM incubated for 48 hrs by Western blot analysis; format: cell-based; conditions: dose 1.75-14 µM
[5] = MRT (0 to t) in Sprague-Dawley rat at 10 mg/kg, ip measured after 24 hrs by LC-MS/MS analysis; format: ADME, organism-based; conditions: in vivo
[6] = test system: NCI-H1048; test: Induction of apoptosis in human NCI-H1048 cells assessed as increase in Bax level incubated for 48 hrs by Western blot analysis; format: functional, cell-based
[7] = test system: NCI-H446; test: Inhibition of cell invasion in human NCI-H446 cells incubated for 24 hrs by transwell assay; format: functional, cell-based
[8] = test system: SHP77; test: Antiproliferative activity against human SHP77 cells incubated for 72 hrs; format: functional, cell-based; conditions: SHP77, 72 h
[9] = test system: NCI-H1048; test: Induction of mitochondrial dysfunction in human NCI-H1048 cells assessed as increase in ROS level at 1.75 to 14 uM incubated for 48 hrs by DCFH-DA staining based flow cytometry; format: functional, cell-based; conditions: dose 1.75-14 µM
[10] = MRT (0 to infinity) in Sprague-Dawley rat at 10 mg/kg, ip measured after 24 hrs by LC-MS/MS analysis; format: ADME, organism-based; conditions: in vivo
[11] = test system: NCI-H446; test: Induction of apoptosis in human NCI-H446 cells assessed as increase in Bax level incubated for 48 hrs by Western blot analysis; format: functional, cell-based; conditions: dose 1-8 µM
[12] = test system: NCI-H1048; test: Induction of mitochondrial membrane permeability in human NCI-H1048 cells assessed as increase in cytochrome C release at 1.75 to 14 uM incubated for 48 hrs by Western blot analysis; format: functional, cell-based; conditions: dose 1.75-14 µM
[13] = test system: NCI-H146; test: Antiproliferative activity against human NCI-H146 cells incubated for 72 hrs; format: functional, cell-based; conditions: NCI-H146, 72 h
[14] = Cmax in Sprague-Dawley rat at 10 mg/kg, ip measured after 24 hrs by LC-MS/MS analysis; format: ADME, organism-based; conditions: in vivo
[15] = Acute toxicity in Kunming mouse assessed as lethal dose; conditions: in vivo
[16] = test system: NCI-H1048; test: Induction of apoptosis in human NCI-H1048 cells assessed as decrease in Bcl-2 level incubated for 48 hrs by Western blot analysis; format: functional, cell-based
[17] = Toxicity in BALB/c nude mouse xenografted with human NCI-H446 cells assessed as deleterious effect in kidney at 10 to 20 mg/kg, ip for 21 days by H and E staining based analysis; format: organism-based; conditions: in vivo, 504 h, dose 10-20 mg/kg, time 21 day
[18] = test system: NCI-H1048; test: Inhibition of cell migration in human NCI-H1048 cells incubated for 24 hrs by transwell assay; format: functional, cell-based; conditions: dose 0.375-3 µM
[19] = AUC (0 to t) in Sprague-Dawley rat at 10 mg/kg, ip measured after 24 hrs by LC-MS/MS analysis; format: ADME, organism-based; conditions: in vivo
[20] = test system: NCI-H446; test: Induction of mitochondrial dysfunction in human NCI-H446 cells assessed as increase in ROS level at 1 to 8 uM incubated for 48 hrs by DCFH-DA staining based flow cytometry; format: functional, cell-based; conditions: dose 1-8 µM
[21] = Half life in Sprague-Dawley rat at 10 mg/kg, ip measured after 24 hrs by LC-MS/MS analysis; format: ADME, organism-based; conditions: in vivo
[22] = Toxicity in BALB/c nude mouse xenografted with human NCI-H446 cells assessed as deleterious effect in liver at 10 to 20 mg/kg, ip for 21 days by H and E staining based analysis; format: organism-based; conditions: in vivo, 504 h, dose 10-20 mg/kg, time 21 day
[23] = test system: NCI-H446; test: Induction of DNA damage in human NCI-H446 cells incubated for 48 hrs by comet assay; format: functional, cell-based; conditions: dose 1-8 µM
[24] = Inhibition of PI3K/AKT/mTOR signalling pathway in human NCI-H1048 cells assessed as decrease in AKT level at 1.75 to 14 uM incubated for 48 hrs by Western blot analysis; format: cell-based; conditions: dose 1.75-14 µM
[25] = Acute toxicity in Kunming mouse assessed as animal death at 400 mg/kg, ip; format: organism-based; conditions: in vivo
[26] = AUC (0 to infinity) in Sprague-Dawley rat at 10 mg/kg, ip measured after 24 hrs by LC-MS/MS analysis; format: ADME, organism-based; conditions: in vivo
[27] = test system: NCI-H209; test: Antiproliferative activity against human NCI-H209 cells incubated for 72 hrs; format: functional, cell-based; conditions: NCI-H209, 72 h
[28] = test system: NCI-H446; test: Induction of cell cycle arrest in human NCI-H446 cells assessed as accumulation at S phase incubated for 48 hrs by PI staining based flow cytometry; format: functional; conditions: dose 1-8 µM
[29] = test system: NCI-H446; test: Induction of apoptosis in human NCI-H446 cells assessed as reduction in cell viability incubated for 48 hrs by Geimsa staining based analysis; format: functional; conditions: dose 1-8 µM
[30] = test system: NCI-H446; test: Inhibition of cell migration in human NCI-H446 cells incubated for 24 hrs by transwell assay; format: functional, cell-based; conditions: dose 0.375-3 µM
[31] = test system: NCI-H446; test: Inhibition of clonogenesis in human NCI-H446 cells incubated for 14 to 21 days by crystal violet staining based analysis; format: functional, cell-based; conditions: dose 0.375-3 µM, time 14-21 day
[32] = test system: NCI-H1048; test: Induction of apoptosis in human NCI-H1048 cells assessed as increase in cleaved caspase-9 level incubated for 48 hrs by Western blot analysis; format: functional, cell-based
[33] = test system: NCI-H82; test: Antiproliferative activity against human NCI-H82 cells incubated for 72 hrs; format: functional, cell-based; conditions: NCI-H82, 72 h
[34] = test system: NCI-H1048; test: Induction of early apoptosis in human NCI-H1048 cells incubated for 48 hrs by Annexin V-FITC/PI staining based flow cytometry; format: functional, cell-based; conditions: dose 1-8 µM
[35] = Inhibition of PI3K/AKT/mTOR signalling pathway in human NCI-H1048 cells assessed as decrease in PI3K phosphorylation at 1 to 8 uM incubated for 48 hrs by Western blot analysis; format: cell-based; conditions: dose 1-8 µM
[36] = Inhibition of PI3K/AKT/mTOR signalling pathway in human NCI-H1048 cells assessed as decrease in mTOR level at 1 to 8 uM incubated for 48 hrs by Western blot analysis; format: cell-based; conditions: dose 1-8 µM
[37] = test system: NCI-H1048; test: Induction of mitochondrial dysfunction in human NCI-H1048 cells assessed as increase in ROS level at 1 to 8 uM incubated for 48 hrs by DCFH-DA staining based flow cytometry; format: functional, cell-based; conditions: dose 1-8 µM
[38] = Inhibition of PI3K/AKT/mTOR signalling pathway in human NCI-H1048 cells assessed as decrease in AKT level at 1 to 8 uM incubated for 48 hrs by Western blot analysis; format: cell-based; conditions: dose 1-8 µM
[39] = test system: NCI-H446; test: Induction of early apoptosis in human NCI-H446 cells incubated for 48 hrs by Annexin V-FITC/PI staining based flow cytometry; format: functional, cell-based; conditions: dose 1-8 µM
[40] = test system: NCI-H1048; test: Induction of mitochondrial membrane permeability in human NCI-H1048 cells assessed as increase in cytochrome C release at 1 to 8 uM incubated for 48 hrs by Western blot analysis; format: functional, cell-based; conditions: dose 1-8 µM

| SMILES | Activity [1] | MRT last at 24 h [5] | Activity [6] | inhibition [7] | IC50 [8] | MRT inf [10] | Activity [11] | IC50 [13] | Cmax [14] | LD50 [15] | Activity [16] | Activity [17] | inhibition [18] | AUC(0-t) at 24 h [19] | Activity [20] | half-life [21] | Activity [22] | Activity [23] | Activity [25] | AUC(0-inf) [26] | also measured |
| --- | --- | --- | --- | --- | --- | --- | --- | --- | --- | --- | --- | --- | --- | --- | --- | --- | --- | --- | --- | --- | --- |
| CCC1CCCC(C)N1Cc1cc2c(cc1-c1cc3ccc4c(c3cn1)OCO4)OCO2 (configuration not stated) | Non-toxic | 5.42 h | Dose-dependent-effect | Dose-dependent-effect | 8.01 µM | 6.14 h | Dose-dependent-effect | 6.23 µM | 228 ng/mL | 300 mg/kg | Dose-dependent-effect | Non-toxic | Dose-dependent-effect | 1180 ng·h/mL | Active | 292 min | Non-toxic | Dose-dependent-effect | Toxic | 1210 ng·h/mL | inhibition [2]: Active; Activity [3]: Active; Activity Similar To Etoposide; inhibition [4]: Active; Activity [9]: Active; Activity [12]: Active; inhibition [24]: Active; IC50 [27]: 11.6 µM; Activity [28]: Dose-dependent-effect; Activity [29]: Dose-dependent-effect; inhibition [30]: Dose-dependent-effect; inhibition [31]: Dose-dependent-effect; Activity [32]: Dose-dependent-effect; IC50 [33]: 2410 nM |
| CC1CC(C)CN(Cc2cc3c(cc2-c2cc4ccc5c(c4cn2)OCO5)OCO3)C1 (configuration not stated) | Non-toxic | 5.02 h | Dose-dependent-effect | Dose-dependent-effect; Displayed Stronger Inhibitory Effect Than Etoposide | 7.92 µM | 5.19 h | Dose-dependent-effect | 22.8 µM | 145 ng/mL | 300 mg/kg | Dose-dependent-effect | Non-toxic | Dose-dependent-effect; Displayed Stronger Inhibitory Effect Than Etoposide | 736 ng·h/mL | Active | 203 min | Non-toxic | Dose-dependent-effect | Toxic | 741 ng·h/mL | Activity [34]: Dose-dependent-effect; Exhibited Stronger Effect Than Etoposide; inhibition [35]: Active; Pronounced Effect Was Observed In Human Nci-H1048 Cells Than In Human Nci-H446 Cells; inhibition [36]: Active; Activity [37]: Active; inhibition [38]: Active; Activity [39]: Dose-dependent-effect; Exhibited Stronger Effect Than Etoposide; IC50 [27]: 36.8 µM; Activity [28]: Dose-dependent-effect; Activity [29]: Dose-dependent-effect; Activity [40]: Active; inhibition [30]: Dose-dependent-effect; Displayed Stronger Inhibitory Effect Than Etoposide; inhibition [31]: Dose-dependent-effect; Activity [32]: Dose-dependent-effect; IC50 [33]: 2250 nM |
